*1 amine or outer side, *2 acyl side, *3 side chain or, on linkers, in order; H or OH if unused. Where a SMILES comes first, the peptide text is derived from it. γGlu = O=C(O)[CH](CCC(=O)[*:2])N[*:1]
What was measured:
human CaSR R66E mutant = target: T1, human CaSR R66E mutant (Homo sapiens, UniProt P41180, R66E); test: Calcium mobilization assay, CaSR R66E mutant; assay type: cell-based; details: for Response in calcium mobilization assay: in words
T1 construct: (N); expressed in transfected cells; host or cells: PEAKrapid cells (ATCC), pcDNA 3.1, transient transfection
T1 sequence (P41180 20-1078 R66E): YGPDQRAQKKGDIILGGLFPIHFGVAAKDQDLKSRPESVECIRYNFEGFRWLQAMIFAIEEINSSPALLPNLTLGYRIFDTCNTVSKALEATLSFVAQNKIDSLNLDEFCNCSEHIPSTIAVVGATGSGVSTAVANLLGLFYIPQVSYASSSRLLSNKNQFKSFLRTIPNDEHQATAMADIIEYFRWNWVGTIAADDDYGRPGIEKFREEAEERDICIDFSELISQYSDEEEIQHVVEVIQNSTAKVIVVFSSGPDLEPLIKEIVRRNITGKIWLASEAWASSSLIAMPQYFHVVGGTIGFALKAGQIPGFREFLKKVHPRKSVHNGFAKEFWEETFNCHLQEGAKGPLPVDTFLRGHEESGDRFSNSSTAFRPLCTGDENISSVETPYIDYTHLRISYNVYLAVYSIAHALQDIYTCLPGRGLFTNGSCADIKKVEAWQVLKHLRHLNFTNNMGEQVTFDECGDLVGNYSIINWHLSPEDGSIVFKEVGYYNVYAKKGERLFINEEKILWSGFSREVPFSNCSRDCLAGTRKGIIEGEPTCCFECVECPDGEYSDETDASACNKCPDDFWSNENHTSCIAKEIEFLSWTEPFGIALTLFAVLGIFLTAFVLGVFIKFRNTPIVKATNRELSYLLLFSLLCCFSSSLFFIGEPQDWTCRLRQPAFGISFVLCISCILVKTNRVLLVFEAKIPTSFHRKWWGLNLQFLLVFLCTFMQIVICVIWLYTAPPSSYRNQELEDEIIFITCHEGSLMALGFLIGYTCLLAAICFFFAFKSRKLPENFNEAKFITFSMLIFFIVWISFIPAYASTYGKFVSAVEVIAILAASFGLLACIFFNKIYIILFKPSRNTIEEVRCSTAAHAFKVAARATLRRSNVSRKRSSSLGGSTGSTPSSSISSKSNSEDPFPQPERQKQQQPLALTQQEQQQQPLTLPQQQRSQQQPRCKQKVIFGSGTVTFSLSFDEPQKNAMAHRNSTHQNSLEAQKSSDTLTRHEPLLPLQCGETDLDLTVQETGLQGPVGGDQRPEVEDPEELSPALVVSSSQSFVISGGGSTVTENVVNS
Protocol: The CaSR receptor responsiveness was assessed by using PEAK^rapid cells (ATCC, Manassas, VA, USA) transiently transfected with the receptor DNA by the method reported by Kitajima et al.[6]. Briefly, human CaSR or its mutant cDNA with a signal sequence (MAFYSCCWVLLALTWHTSA) followed by FLAG-tag (DYKDDDDK) were inserted into pcDNA 3.1 expression vectors in Opti-MEM I medium (Thermo Fisher Scientific), mixed with FuGENE 6 (Roche), and poured onto PEAK^rapid cells grown at a submaximal concentration. After culturing for 24 h in 96-well plates, the cells were incubated with 5 µM Calcium-5 solution (Calcium-5 assay kit, Molecular Devices) for 45–60 min, and measurements were performed using a plate reader (FDSS/µCELL, Hamamatsu Photonics, Shizuoka, Japan) and its associated software. The activation of CaSR expressed in cells increases the intracellular Ca^2+ concentration, which is measured using a Ca^2+-sensitive dye. The binding of Ca^2+ to the Ca^2+-sensitive dye increases dye fluorescence, with excitation at 485 nm and emission at 525 nm. Test compounds were dissolved and administered in the assay buffer (146 mM NaCl, 1 mM MgSO4, 20 mM HEPES, 1 mM CaCl2, 2.5 mM probenecid, and 1.39 mM glucose, pH 7.4). Transiently transfected cells were challenged with compounds and compared with the vehicle alone and/or mock-transfected cells. The concentration dependence of the fluorescence intensity (influx of Ca^2+) was analyzed using the plate reader at 1 s intervals for 180 s. For the dose–response curve calculations, peak fluorescence responses after the addition of compounds were corrected for, normalized to the background fluorescence (ΔF/F = –F − F0)/F0), and baseline noise was subtracted. Dose–response curves were calculated by non-linear regression using GraphPad PRISM 8.0.

CaSR = test system: CaSR; design: method as in PMID 19892707, PMID 27477658; details: screening of dipeptides and tripeptides, previous work; cited from earlier work

Structure (SMILES) | Response in calcium mobilization assay (human CaSR R66E mutant) | CaSR activation potency (CaSR) | Emax (% of wild-type values) (human CaSR R66E mutant) | EC50 (human CaSR R66E mutant; mean ± s.e.m., n = 3)
CC(C)[C@H](NC(=O)CC[C@H](N)C(=O)O)C(=O)O [γ-EV, γ-glutamyl-valine] | no response |  |  | 
CC(C)C(NC(=O)CCC(N)C(=O)O)C(=O)NCC(=O)O (stereo not drawn) [γ-EVG, γ-glutamyl-valyl-glycine] (γGlu-Val-Gly-OH; configuration not given here) | completely abolished the activity | most potent activity among those tested |  | 
N[C@@H](Cc1ccc(O)cc1)C(=O)O [L-Tyr, L-tyrosine] | no response |  |  | 
[Ca+2].[Cl-].[Cl-] [CaCl2] |  |  | 105.0 % of WT | 3.47 ± 0.4 mM
